{
  "source": "patent US20110197288A1",
  "about": "“Transgenic animal for screening of compounds that modulate cell proliferation, and its use in the pharmaceutical field” (priority 2009, published 2011)",
  "key": {"[1]": {"system": "cell proliferation (luciferase reporter under CYCB2 promoter) in tissues", "experiment": "luciferase activity in tissue protein extracts of treated CYCB2-luciferase transgenic mice", "assay_type": "in vivo, mouse", "settings": "150 ug/kg 5FU, 2 and 5 days, all tissues analysed, versus saline vehicle; FIG. 7", "description": "For this purpose, organs were homogenized in lysis buffer and lysates were subjected to three cycles of freezing and thawing. Proteins were separated from DNA and lysosomes by centrifugation (13000×g for 30 min). After determining the protein concentration of the extract, the biochemical assay of luciferase activity was carried out by measuring luminescence emission with a luminometer. The relative luminescence units (RLU) determined during a measurement of 10 seconds were then expressed on the Y axis as RLU values per microgram protein. The results according to the graph in FIG. 2C indicate that, in the adult animal, light emission is restricted to organs characterized by basal homeostatic proliferation such as spleen, bone marrow, femur and sternum, or sites of active tissue remodeling in the mouse, such as joints of the feet, jaw, etc.\n(§1) As an example of application for development of anti-proliferative drugs, heterozygous individuals of the transgenic mouse line according to the invention were treated as follows: a first group was treated with 150 ug/kg 5-fluorouracil (5FU), a well-known chemotherapeutic agent, while another group was treated with saline as control (vehicle) for 2 and 5 days.\nMice were sacrificed and luciferase activity was evaluated in tissue protein extracts, as reported in the graph in FIG. 7."}, "bone marrow cells [2]": {"system": "bone marrow cells", "experiment": "cell cycle phase analysis of bone marrow cells by FACS with propidium iodide staining", "assay_type": "in vivo, mouse", "settings": "bone marrow cells from 5FU treated mice, vehicle 11.2%, FIG. 8B", "description": "as §1\nCells were fixed with methanol acetone 4:1, stained with 0.1 mg/ml propidium iodide, a DNA fluorescent marker, and then subjected to FACS analysis."}, "bone marrow cells [3]": {"system": "bone marrow cells", "experiment": "luciferase expression (RLU per microgram protein) in bone marrow cells of treated transgenic mice", "assay_type": "in vivo, mouse", "settings": "5 day 5FU treatment, FIG. 8A", "description": "To assess the expression of luciferase in proliferating progenitor cells, bone marrow cells, that are highly enriched in hematopoietic precursors, were collected by flushing the femurs with culture medium and enzyme activity was analyzed in protein extracts (Ciana et al 2001), as shown in the graph in FIG. 3A.\nas §1"}, "[4]": {"system": "skin of transgenic mouse (luciferase reporter under CYCB2 promoter)", "experiment": "skin light emission imaging after cutaneous application of carcinogen to transgenic mouse", "settings": "0.24% DMBA solution in acetone on skin, day 7 relative to day 0; FIG. 9", "protocol": "To evaluate this application, the skin of a transgenic mouse according to the invention was treated with DMBA, a carcinogen, and the stimulation of light emission was measured for the carcinogen-treated side compared to the side treated with vehicle alone.\nIn particular, a 0.24% DMBA solution in acetone was applied to the skin of transgenic individuals according to the invention. One week later (day 7 relative to day 0) the amount of luciferase produced was detected by measuring the light emission produced by the skin of the animals."}},
  "data": [
    {"compound": "O=c1[nH]cc(F)c(=O)[nH]1", "note": "[5FU, 5-fluorouracil]", "values": [
      {"measurement": "luciferase activity in tissue protein extracts", "setting": "[1]", "value": "Reduced luciferase activity, until levels that were undetectable"},
      {"measurement": "S phase cells", "setting": "bone marrow cells [2]", "value": 1.97, "unit": "%"},
      {"measurement": "luciferase expression in bone marrow cells", "setting": "bone marrow cells [3]", "value": "reduced luciferase expression"}
    ]},
    {"compound": "Cc1c2ccccc2c(C)c2c1ccc1ccccc12", "note": "[DMBA, 7,12-dimethylbenz(a)anthracene]", "values": [
      {"measurement": "induction of luciferase activity (light emission) versus region treated with vehicle alone", "setting": "[4]", "value": 12.5, "unit": "fold"}
    ]}
  ]
}
